The record followed here is patent US10081662B2, “Modified relaxin B chain peptides” (The Florey Institute of Neuroscience and Mental Health, priority 2014, dated 2018).

In experiment [1] the target is T1, RXFP1 (Homo sapiens, UniProt Q9HBX9).
T1 construct: expressed in transfected cells; host or cells: HEK-293T
T1 sequence (Q9HBX9 1-757): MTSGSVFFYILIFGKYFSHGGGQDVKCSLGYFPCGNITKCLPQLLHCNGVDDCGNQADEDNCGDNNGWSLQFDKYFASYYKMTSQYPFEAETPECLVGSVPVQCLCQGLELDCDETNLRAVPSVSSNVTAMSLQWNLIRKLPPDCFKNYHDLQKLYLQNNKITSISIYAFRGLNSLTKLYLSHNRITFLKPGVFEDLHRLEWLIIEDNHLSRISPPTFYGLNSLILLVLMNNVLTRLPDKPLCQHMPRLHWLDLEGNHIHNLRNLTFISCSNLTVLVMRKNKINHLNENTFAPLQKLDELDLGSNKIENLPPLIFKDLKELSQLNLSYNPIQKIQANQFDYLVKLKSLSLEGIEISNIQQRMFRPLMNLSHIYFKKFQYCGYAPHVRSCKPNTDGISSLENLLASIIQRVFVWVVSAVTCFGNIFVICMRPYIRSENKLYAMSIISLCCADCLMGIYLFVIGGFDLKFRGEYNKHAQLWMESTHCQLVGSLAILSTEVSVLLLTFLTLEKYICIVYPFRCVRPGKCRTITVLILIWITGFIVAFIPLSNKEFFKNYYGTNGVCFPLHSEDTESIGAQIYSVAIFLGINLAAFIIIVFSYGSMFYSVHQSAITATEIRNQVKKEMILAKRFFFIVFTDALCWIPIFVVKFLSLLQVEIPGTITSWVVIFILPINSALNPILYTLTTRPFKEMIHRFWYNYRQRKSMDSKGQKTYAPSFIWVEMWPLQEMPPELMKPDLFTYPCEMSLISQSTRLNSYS
The experiment in a line: Eu-labelled H2 relaxin competition binding, whole HEK-293T cells stably transfected with RXFP1. The method, then: Human embryonic kidney (HEK-293T) cells stably transfected with RXFP1 were cultured in RPMI 1640 medium supplemented with 10% fetal calf serum, 100 μg/ml penicillin, 100 μg/ml streptomycin and 2 mM L-glutamine and plated into 96-well pre-coated with poly-L-lysine for whole cell binding assays. Competition binding experiments were conducted with Eu^3+-labelled H2 relaxin (as per Shabanpoor et al., 2012, Biochem Biophys Res Commun. 420, 253-256) in the absence or presence of increasing concentrations of unlabelled relaxin-2 B chain derivatives. Nonspecific binding was determined with an excess of unlabelled peptides (500 nM H2 relaxin). Fluorescent measurements were recorded at an excitation wavelength of 340 nm and emission of 614 nm on a Victor plate reader (Perkin-Elmer Inc.). […] Statistical differences in pIC50 values were analyzed using one-way analysis of variance coupled to Newman Keul's multiple comparison test for multiple group comparisons in GraphPad Prism 6.

The target in experiment [2] is T1, RXFP1. Put plainly: cAMP reporter gene assay (pCRE β-galactosidase) in HEK-293T cells transfected with RXFP1. Format: cell-based. The method, then: The ability of the relaxin-2 B chain peptide derivatives generated in Example 1 to stimulate cAMP response was also evaluated, using a cAMP reporter gene assay as described previously (Scott et al., 2006, J Biol Chem. 281, 34942-34954). HEK-293T cells co-transfected with either RXFP1 or RXFP2, or 7BP cells, and a pCRE β-galactosidase reporter plasmid were plated in 96-well plates. After 24 hours, the co-transfected cells were incubated with increasing concentrations of peptides in parallel to 10 nM of H2 relaxin or INSL3 for RXFP1- or RXFP2-transfected cells respectively. The amount of cAMP-driven β-galactosidase expression in each well was assessed with a colorimetric assay measuring absorbance at 570 nm on a microplate spectrophotometer. Ligand-induced cAMP stimulation was expressed as a percentage of maximal response of H2 relaxin or INSL3 for RXFP1 and RXFP2 cells respectively. Each data point was measured in triplicate and each experiment conducted independently at least three separate times. Statistical differences in pEC50 values were analyzed using one-way ANOVA coupled to Newman Keul's multiple comparison test for multiple group comparisons in GraphPad Prism 6.
(In a reporter assay the amount or activity of a reporter protein is the signal.)

Experiment [3] addresses T2, fusion protein comprising the extracellular domain of RXFP1 and the transmembrane domain of CD8 (7BP cells) (Homo sapiens, UniProt Q9HBX9).
T2 construct: the extracellular domain of RXFP1 and the transmembrane domain of CD8; expressed in transfected cells
T2 sequence (Q9HBX9 1-409 limits assumed): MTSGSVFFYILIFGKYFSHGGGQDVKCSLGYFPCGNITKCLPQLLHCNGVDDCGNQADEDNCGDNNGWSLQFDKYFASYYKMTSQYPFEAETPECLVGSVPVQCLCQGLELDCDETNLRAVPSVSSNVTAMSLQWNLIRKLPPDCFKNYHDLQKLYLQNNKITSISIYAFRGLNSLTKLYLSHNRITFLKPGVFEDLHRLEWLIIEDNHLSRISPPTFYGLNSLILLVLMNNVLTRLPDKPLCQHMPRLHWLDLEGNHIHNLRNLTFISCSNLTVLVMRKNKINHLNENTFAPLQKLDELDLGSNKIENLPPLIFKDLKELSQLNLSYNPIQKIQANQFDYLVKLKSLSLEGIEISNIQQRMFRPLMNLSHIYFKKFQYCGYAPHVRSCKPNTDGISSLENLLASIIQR
The experiment in a line: Eu-labelled H2 relaxin competition binding to 7BP cells.

[4] abbreviates: HEK-293T cells stably transfected with RXFP1, competition with Eu-labelled H2 relaxin, mean ± S.E, n ≥ 3, read-out: RXFP1 Eu-H2 pKi (converted).
[5] abbreviates: HEK-293T cells co-transfected with RXFP1 and pCRE β-galactosidase reporter, n ≥ 3, read-out: RXFP1 cAMP pEC50 (converted).
[6] abbreviates: 7BP cells, competition with Eu-labelled H2 relaxin, n ≥ 3, read-out: 7BP Eu-H2 pKi (converted).

Like-named read-outs stand apart in the source and are kept apart here. Square brackets hold non-standard residues; d marks the D form. Peptide text beside a SMILES is read from it. Agb = N=C(N)NCC[C@H](N)C(=O)O

Regarding `CC[C@H](C)[C@H](NC(=O)[C@H](C)NC(=O)[C@@H](NC(=O)[C@H](CCC(N)=O)NC(=O)[C@H](C)NC(=O)[C@H](CCCNC(=N)N)NC(=O)[C@@H](NC(=O)[C@H](CC(C)C)NC(=O)[C@H](CCC(=O)O)NC(=O)[C@H](CCCNC(=N)N)NC(=O)CNC(=O)[C@H](CO)NC(=O)[C@H](CC(C)C)NC(=O)[C@H](CCCCN)NC(=O)[C@@H](NC(=O)[C@@H](NC(C)=O)C(C)C)[C@@H](C)CC)C(C)C)[C@@H](C)CC)C(=O)N[C@@H](CO)C(=O)NCC(=O)N[C@@H](CCSC)C(=O)N[C@@H](CO)C(=O)N[C@H](C(=O)N[C@@H](Cc1c[nH]c2ccccc12)C(=O)N[C@@H](CO)C(=O)N[C@@H](CCCCN)C(=O)N[C@@H](CCCNC(=N)N)C(=O)N[C@@H](CO)C(=O)N[C@@H](CC(C)C)C(N)=O)[C@@H](C)O` [AcB7-33 C11.23S] (Ac-VIKLSGRELVRAQIAISGMSTWSKRSL-NH2), the results for the Ki (at RXFP1 [1] (setting [4]); in experiment [3] (setting [6])) were 1000 nM and 28.8 nM, respectively. In addition, the EC50 at RXFP1 [2] (setting [5]) was 3980 nM.
As to `CC[C@H](C)[C@H](NC(=O)[C@H](C)NC(=O)[C@@H](NC(=O)[C@H](CCC(N)=O)NC(=O)[C@H](C)NC(=O)[C@H](CCNC(=N)N)NC(=O)[C@@H](NC(=O)[C@H](CC(C)C)NC(=O)[C@H](CCC(=O)O)NC(=O)[C@H](CCCNC(=N)N)NC(=O)CNC(=O)[C@H](CO)NC(=O)[C@H](CC(C)C)NC(=O)[C@H](CCCCN)NC(=O)[C@@H](NC(=O)[C@@H](N)C(C)C)[C@@H](C)CC)C(C)C)[C@@H](C)CC)C(=O)N[C@@H](CO)C(=O)NCC(=O)N[C@@H](CCSC)C(=O)N[C@@H](CO)C(=O)N[C@H](C(=O)N[C@@H](Cc1c[nH]c2ccccc12)C(=O)N[C@@H](CO)C(=O)N[C@@H](CCCCN)C(=O)N[C@@H](CCCNC(=N)N)C(=O)N[C@@H](CO)C(=O)N[C@@H](CC(C)C)C(N)=O)[C@@H](C)O` [B7-33 C11.23S R17NR] (H-VIKLSGRELV[Agb]AQIAISGMSTWSKRSL-NH2), the Ki on RXFP1 [1] (setting [4]) was above 10000 nM. In addition, the EC50 on RXFP1 [2] (setting [5]) was 1550 nM.
For `CC[C@H](C)[C@H](NC(=O)[C@H](C)NC(=O)[C@@H](NC(=O)[C@H](CCC(N)=O)NC(=O)[C@H](C)NC(=O)[C@H](CCCNC(=N)N)NC(=O)[C@@H](NC(=O)[C@H](CC(C)C)NC(=O)[C@H](CCC(=O)O)NC(=O)[C@H](CCCNC(=N)N)NC(=O)CNC(=O)[C@H](CO)NC(=O)[C@H](CC(C)C)NC(=O)[C@H](CCCCN)NC(=O)[C@@H](NC(=O)[C@@H](NC(C)=O)C(C)C)[C@@H](C)CC)C(C)C)[C@@H](C)CC)C(=O)N[C@@H](CO)C(=O)NCC(=O)N[C@@H](CCSC)C(=O)N[C@@H](CO)C(=O)N[C@H](C(=O)N[C@@H](Cc1c[nH]c2ccccc12)C(=O)N[C@@H](CO)C(=O)N[C@@H](CCCCN)C(=O)N[C@@H](CCCCN)C(=O)N[C@@H](CCCCN)C(=O)N[C@@H](CCCCN)C(N)=O)[C@@H](C)O` [KKKK (AcB7-29 C11.23S)] (Ac-VIKLSGRELVRAQIAISGMSTWSKKKK-NH2), the values for the Ki (on RXFP1 [1] (setting [4]); in experiment [3] (setting [6])) were 562 nM and 1.23 nM, respectively. Moreover, the EC50 at RXFP1 [2] (setting [5]) was 1550 nM.
As for `CC[C@H](C)[C@H](NC(=O)[C@H](C)NC(=O)[C@H](C)NC(=O)[C@H](CCC(N)=O)NC(=O)[C@H](C)NC(=O)[C@H](C)NC(=O)[C@@H](NC(=O)[C@H](CC(C)C)NC(=O)[C@H](CCC(=O)O)NC(=O)[C@H](C)NC(=O)CNC(=O)[C@H](CO)NC(=O)[C@H](CC(C)C)NC(=O)[C@H](CCCCN)NC(=O)[C@@H](NC(=O)[C@@H](NC(C)=O)C(C)C)[C@@H](C)CC)C(C)C)C(=O)N[C@@H](CO)C(=O)NCC(=O)N[C@@H](CCSC)C(=O)N[C@@H](CO)C(=O)N[C@H](C(=O)N[C@@H](Cc1c[nH]c2ccccc12)C(=O)N[C@@H](CO)C(=O)N[C@@H](CCCCN)C(=O)N[C@@H](CCCNC(=N)N)C(=O)N[C@@H](CO)C(=O)N[C@@H](CC(C)C)C(N)=O)[C@@H](C)O` [R13/17A. I20A (AcB7-33 C11.23S)] (Ac-VIKLSGAELVAAQAAISGMSTWSKRSL-NH2), the results for the Ki (on RXFP1 [1]; in experiment [3]) were above 10000 nM and 2880 nM, respectively. In addition, on RXFP1 [2], the EC50 was above 10000 nM.
As to `CC[C@H](C)[C@H](NC(=O)[C@H](C)NC(=O)[C@@H](NC(=O)[C@H](CCC(N)=O)NC(=O)[C@H](C)NC(=O)[C@H](CCCNC(=N)N)NC(=O)[C@@H](NC(=O)[C@H](CC(C)C)NC(=O)[C@H](CCC(=O)O)NC(=O)[C@H](C)NC(=O)CNC(=O)[C@H](CO)NC(=O)[C@H](CC(C)C)NC(=O)[C@H](CCCCN)NC(=O)[C@@H](NC(=O)[C@@H](NC(C)=O)C(C)C)[C@@H](C)CC)C(C)C)[C@@H](C)CC)C(=O)N[C@@H](CO)C(=O)NCC(=O)N[C@@H](CCSC)C(=O)N[C@@H](CO)C(=O)N[C@H](C(=O)N[C@@H](Cc1c[nH]c2ccccc12)C(=O)N[C@@H](CO)C(=O)N[C@@H](CCCCN)C(=O)N[C@@H](CCCNC(=N)N)C(=O)N[C@@H](CO)C(=O)N[C@@H](CC(C)C)C(N)=O)[C@@H](C)O` [R13A (AcB7-33 C11.23S)] (Ac-VIKLSGAELVRAQIAISGMSTWSKRSL-NH2), the Ki on RXFP1 [1] (setting [4]) was above 10000 nM; in experiment [3] (setting [6]) it was 1740 nM. The EC50 on RXFP1 [2] (setting [5]) is above 10000 nM.
Take `CC[C@H](C)[C@H](NC(=O)[C@H](C)NC(=O)[C@H](C)NC(=O)[C@H](CCC(N)=O)NC(=O)[C@H](C)NC(=O)[C@H](CCCNC(=N)N)NC(=O)[C@@H](NC(=O)[C@H](CC(C)C)NC(=O)[C@H](CCC(=O)O)NC(=O)[C@H](CCCNC(=N)N)NC(=O)CNC(=O)[C@H](CO)NC(=O)[C@H](CC(C)C)NC(=O)[C@H](CCCCN)NC(=O)[C@@H](NC(=O)[C@@H](NC(C)=O)C(C)C)[C@@H](C)CC)C(C)C)C(=O)N[C@@H](CO)C(=O)NCC(=O)N[C@@H](CCSC)C(=O)N[C@@H](CO)C(=O)N[C@H](C(=O)N[C@@H](Cc1c[nH]c2ccccc12)C(=O)N[C@@H](CO)C(=O)N[C@@H](CCCCN)C(=O)N[C@@H](CCCNC(=N)N)C(=O)N[C@@H](CO)C(=O)N[C@@H](CC(C)C)C(N)=O)[C@@H](C)O` [R20A (AcB7-33 C11.23S)] (Ac-VIKLSGRELVRAQAAISGMSTWSKRSL-NH2): at RXFP1 [1] (setting [4]), the Ki is above 10000 nM. The EC50 at RXFP1 [2] (setting [5]) was above 10000 nM.
For “VIKLCGRELVRAQIAICGMSTWSKRSL-NH2 [Native B7-33]”, in experiment [3] (7BP cells, lower affinity than H2 relaxin, FIG. 2B), the “Binding to 7BP cells (in words)” value is “strongly bind to 7BP cells”.
